Reference: patent US7199113B2, “Pharmaceutically active compounds and methods of use thereof” (priority 1998, dated 2007)
Read-outs that look alike come from different tables or passages of the source.

Legend:
Assay type in all cases: biochemical
FIXa = target: T1, FIXa (Homo sapiens, UniProt P00740); experiment: FIXa-dependent FX activation assay; conditions: statement on Table 2 (FIG. 2(b))
T1 construct: FIX was first converted to FIXa by TF/VIIa in the absence of compound; purchased Enzyme Research Laboratories Inc
Procedure: FIX was first converted to FIXa by TF/VIIa in the absence of compound. This was done in a 50-ml tube. After incubating TF/VIIa (0.67 nM, 10 ml) at 37° C. for 15 minutes, FIX (300 nM, 0.123 ml) was added and incubated at 37° C. for 30 minutes. Then 1.54 ml of EDTA (400 mM) was added to stop the FIX activation. Then 65 μl of the above FIXa sample was transferred into wells of a 96-well plate that contain 5 μl of diluted DMSO (or buffer) or compound (in diluted DMSO or buffer). Ten μl of FX (1000 nM), 10 μl of polylysine (300 nM), and 10 μl of Spectrozyme FXa (5 mM) were added to each well and incubate at 37° C. until an OD405 nm value of ˜0.8 was reached. Absorbance at 405 nm was then measured following addition of 20 μl of 50% acetic acid. The percent inhibition of FIXa activity was calculated from OD405 nm values in the absence and presence of a compound.

[1] = target: T2, human recombinant TF/VIIa complex (lipidated) (Homo sapiens, UniProt P13726); experiment: TF/VIIa-dependent FX activation assay; conditions: for outcome of primary and secondary screening (TF antagonism): inhibit FX activation at lower concentrations (<0.1 mM) without significant effects on protease activities; for blocking activity in standard assay for TF/VIIa-dependent factor X activation: statement on FIG. 3
T2 construct: Truncated recombinant human tissue factor (e.g. composed of 243 amino acids) is expressed in E. coli; host or cells: E. coli (TF)
Procedure: A more particular example of the primary screening assay discussed previously is as follows. The assay is standard for measuring TF/VIIa-dependent factor X activation. […] In a more preferred embodiment, the primary screening preferably includes the following steps. • 1) admixing in a suitable assay solution about 0.1 nM of human recombinant TF/VIIa complex (lipidated), about 180 nM human FX, and between from about 0.5 μl to about 10 μl of at least one compound to be tested (optionally dissolved in an appropriate vehicle such as water or dimethylsulfoxide (DMSO)) and incubating the reaction at 37° C. for a few minutes up to about an hour or more, • 2) contacting the solution with a suitable chelating agent such as ethylenediaminietetra acetic acid (EDTA) to reduce or stop factor X activation, • 3) contacting the solution with a detectable amount of a chromogenic substrate specific for FXa (e.g., Spectrozyme FXa or S-2765) and incubating same at 37° C.; and • 4) detecting chromophore produced in the solution as being indicative of the factor X activation.
The primary screening for compounds that inhibit tissue factor/factor VIIa (TF/VIIa) is based on TF/VIIa-dependent FX activation assay (See flow chart in FIG. 1 of the drawings). In this assay, the ability of TF/VIIa complex to activate FX is determined in two discontinuous stages. […] In the second stage (FXa activity assay), EDTA is added at indicated times to the FX activation mixture to chelate calcium, thus leading to the termination of FX→FXa conversion. Calcium is required for TF/VIIa activity. The activity of FXa is then measured by FXa-specific chromogenic substrates such as S-2222, S-2765, or Spectrozyme FXa. In the primary screening, compounds from a previously prepared chemical library are first tested at relatively high concentrations (˜0.833 mM) in TF/VIIa-dependent FX activation assay to identify hits of potential TF pathway antagonists (see FIG. 1). However, it is evident that the inhibition of TF/VIIa-dependent FX activation by a compound in this enzyme-coupled assay can be attributed to effects of the compound on TF/VIIa and/or FXa activities. Thus, secondary screening tests are designed to determine how inhibition takes place and the inhibition mechanism. In secondary screening experiments, effects of those compounds identified from primary screening are tested on catalytic activities of factor VIIa (FVIIa), factor IXa (FIXa), factor Xa (FXa), thrombin, Russell's viper venom (RVV), and trypsin.
Primary screening was done in duplicate in 96-well plates using the TF/VIIa-dependent FX activation assay. All compounds to be screened were dissolved in dimethyl sulfoxide (DMSO), other reagents were prepared or diluted in 25 mM HEPES-NaOH, 5 mM CaCl2, 150 mM NaCl, 0.1% BSA, pH 7.5. For assays where TF was used, purified human recombinant TF (100 nM) was first lipidated with phosphatidylcholine (0.07 mg/ml) and phosphatidylserine (0.03 mg/ml) in 50 mM Tris-HCl, pH 7.5, 0.1% bovine serum albumin (BSA) for 30 minutes at 37° C. A stock solution of TF/VIIa complex was then prepared by combining equal volumes of 100 nM lipidated TF and 100 nM FVIIa The complex was incubated at 37° C. for 30 minutes and then was aliquoted and stored at −70° C. for future uses.
For screening assays, 5 μl of each compound (about 10 mM in DMSO) or DMSO were placed in each well of a 96-well plate, followed by adding 45 μl of TF/VIIa complex (0.1 nM). The components in each well were mixed either with pipette tips or by shaking the plate on a Lab-Line titer plate shaker for 30 seconds. After 15 minutes incubation of the plate at a 37° C., 10 μl of human FX (180 nM) was added to each well and mixed as above. The plate was then incubated at 37° C. for 3 to 15 minutes, followed by addition of 10 μl of EDTA (400 mM in 144 mM HEPES, 864 mM NaCl, 0.576% BSA, pH adjusted to 7.5) to each well to terminate FX activation. […]

trypsin = experiment: Trypsin activity assay; conditions: statement on Table 1 (FIG. 2(a))
Procedure: For trypsin activity assay, 4 μl of trypsin (100 nM) was first mixed with 61 μl of buffer, 5 μl of DMSO or 5 μl of compound (in DMSO), followed by 15 minute incubation at 37° C. Then 10 μl of substrate S-2222 (4.8 mM) was added to start the reaction. After a 15 minute incubation at 37° C., 20 μl of 50% acetic acid was added to quench the reaction. Absorbance at 405 nm was then measured and the percent inhibition of trypsin activity was calculated from OD405 nm values in the absence and presence of a compound.

[2] = titration, data of Table 3 (FIG. 2(c)), primary screening method, read-out: IC50 (inhibitor concentration at which 50% of TF/VIIa-dependent FX activation is inhibited)

T2 sequence (P13726 33-275 limits assumed): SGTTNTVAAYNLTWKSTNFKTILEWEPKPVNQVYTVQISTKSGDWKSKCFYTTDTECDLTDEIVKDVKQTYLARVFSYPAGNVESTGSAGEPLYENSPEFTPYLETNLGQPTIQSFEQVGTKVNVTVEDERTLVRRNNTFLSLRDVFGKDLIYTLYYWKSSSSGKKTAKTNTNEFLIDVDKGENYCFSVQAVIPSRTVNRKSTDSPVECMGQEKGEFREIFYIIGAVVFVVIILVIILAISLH
T2 sequence (P08709 61-212 partner limits assumed): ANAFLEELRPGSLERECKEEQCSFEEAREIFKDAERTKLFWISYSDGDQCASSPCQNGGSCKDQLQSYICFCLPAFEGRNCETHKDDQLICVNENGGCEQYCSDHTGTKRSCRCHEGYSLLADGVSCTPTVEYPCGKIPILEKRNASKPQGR
T2 sequence (P08709 213-466 partner limits assumed): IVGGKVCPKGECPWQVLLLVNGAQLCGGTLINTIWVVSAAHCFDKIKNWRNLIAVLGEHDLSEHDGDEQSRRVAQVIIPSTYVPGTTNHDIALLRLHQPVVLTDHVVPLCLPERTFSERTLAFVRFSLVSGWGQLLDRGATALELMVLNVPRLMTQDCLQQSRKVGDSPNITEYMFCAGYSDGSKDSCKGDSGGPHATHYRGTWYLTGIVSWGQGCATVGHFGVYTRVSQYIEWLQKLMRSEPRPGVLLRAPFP
T1 sequence (P00740 227-461 limits assumed): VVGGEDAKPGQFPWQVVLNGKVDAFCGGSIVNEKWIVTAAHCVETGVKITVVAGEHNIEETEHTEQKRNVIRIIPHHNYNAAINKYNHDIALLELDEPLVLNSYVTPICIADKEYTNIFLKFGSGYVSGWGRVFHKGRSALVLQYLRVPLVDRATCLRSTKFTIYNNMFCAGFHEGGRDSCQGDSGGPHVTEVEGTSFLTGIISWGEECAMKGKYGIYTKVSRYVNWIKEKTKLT
T1 sequence (P00740 47-191 limits assumed): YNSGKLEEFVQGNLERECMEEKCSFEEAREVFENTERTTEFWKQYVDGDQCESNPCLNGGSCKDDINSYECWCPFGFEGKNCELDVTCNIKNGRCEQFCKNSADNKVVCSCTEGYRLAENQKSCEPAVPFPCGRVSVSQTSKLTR

## O=P(O)(O)C(CNc1cccc(O)c1)P(=O)(O)O [Compound 1, 1-(bisphosponate)-2-amino(3-hydroxyphenyl)ethyl]
FIXa
  inhibition of FIXa activity (FIXa-dependent FX activation): do not inhibit FIXa activity
[1]; compound preincubated with TF/VIIa 15 minutes at 37° C. prior to FX, FX 30 nM, read-out: IC50, TF/VIIa-dependent FX activation
  IC50: 12.5 µM
[1]
  outcome of primary and secondary screening (TF antagonism): strong TF antagonists
  blocking activity in standard assay for TF/VIIa-dependent factor X activation: good blocking activity
[1]; kinetic analysis, FIG. 5
  effect on apparent Km values for FX substrate: significantly increased
  mode of inhibition of TF/VIIa complex: competitive inhibitor
[1]; [2]
  IC50: 19 µM
trypsin
  inhibition of trypsin activity: do not inhibit trypsin activity

## O=P(O)(O)C(CNc1ccc(O)cc1)P(=O)(O)O [Compound 2]
FIXa
  inhibition of FIXa activity (FIXa-dependent FX activation): do not inhibit FIXa activity
[1]
  outcome of primary and secondary screening (TF antagonism): strong TF antagonists
  blocking activity in standard assay for TF/VIIa-dependent factor X activation: good blocking activity
[1]; [2]
  IC50: 9.7 µM
trypsin
  inhibition of trypsin activity: do not inhibit trypsin activity
